Reference: patent US9833497B2, “Human originated EGF domain proteins and use of the same” (CHENGDU SOURCEBIO LIMITED-LIABILITY COMPANY, priority 2013, dated 2017)

Assays:
Format in all cases: cell-based
[1] = test system: E. coli BL21; assay: MIC against Gram-negative bacteria: E. coli BL21; details: 5×10^5 CFU/mL
Outline: (§1)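 Bacteria grown in LB at 37° C to McFarland 0.5, resuspended and seeded at 5×10^5 CFU/mL in 96-well plates. Purified human EGF-domain proteins two-fold serially diluted, triplicate wells; cultured at 37° C, shaking 175 rpm. MIC = lowest protein concentration with no growth.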

[2] = test system: Pseudomonas aeruginosa; assay: MIC against Gram-negative bacteria: Pseudomonas aeruginosa; details: 5×10^5 CFU/mL
Outline: as §1

[3] = test system: Proteus mirabilis; assay: MIC against Gram-negative bacteria: Proteus mirabilis; details: 5×10^5 CFU/mL
Outline: as §1

[4] = test system: Enterobacter cloacae; assay: MIC against Gram-negative bacteria: Enterobacter cloacae; details: 5×10^5 CFU/mL
Outline: as §1

[5] = test system: Citrobacter diversus; assay: MIC against Gram-negative bacteria: Citrobacter diversus; details: 5×10^5 CFU/mL
Outline: as §1

[6] = test system: E. coli DH5α; assay: Antibacterial activity: MIC and growth curve against E. coli DH5α in 96-well plate; details: minimal inhibitory concentration against E. coli DH5α; 96-well plate, 5×10^5 CFU/mL, 37° C., judged after 8 h
Outline: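 MIC taken as lowest protein level with no bacterial growth, tracked by A600 every 30 min during 37 °C, 175 rpm culture. Two-fold protein series 50-12.5 μg/mL final, triplicate wells, against 5×10^5 CFU/mL of LB-washed mid-log cells.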

[7] = test system: Aeromonas hydrophila; assay: MIC against Gram-negative bacteria: Aeromonas hydrophila; details: 5×10^5 CFU/mL
Outline: as §1

[8] = test system: Klebsiella pneumonia; assay: MIC against Gram-negative bacteria: Klebsiella pneumonia; details: 5×10^5 CFU/mL
Outline: as §1

[9] = test system: Proteus vulgaris; assay: MIC against Gram-negative bacteria: Proteus vulgaris; details: 5×10^5 CFU/mL
Outline: as §1

[10] = test system: Serratia marcescens; assay: MIC against Gram-negative bacteria: Serratia marcescens; details: 5×10^5 CFU/mL
Outline: as §1

[11] = test system: Moraxella catarrhalis; assay: MIC against Gram-negative bacteria: Moraxella catarrhalis; details: 5×10^5 CFU/mL
Outline: as §1

[12] = 10 h cultivation at 37° C., two-fold serial dilution
[13] = E. coli BL21, 10 h cultivation at 37° C.
[14] = Pseudomonas aeruginosa, 10 h cultivation at 37° C.
[15] = Proteus mirabilis, 10 h cultivation at 37° C.
[16] = Enterobacter cloacae, 10 h cultivation at 37° C.
[17] = Citrobacter diversus, 10 h cultivation at 37° C.
[18] = Aeromonas hydrophila, 10 h cultivation at 37° C.
[19] = Klebsiella pneumonia, 10 h cultivation at 37° C.
[20] = Proteus vulgaris, 10 h cultivation at 37° C.
[21] = Serratia marcescens, 10 h cultivation at 37° C.
[22] = Moraxella catarrhalis, 10 h cultivation at 37° C.

PRT1108 (DLNECNSNPCQSNGECVELSSEKQYGRITGLPSSFSYHEASGYVCICQPGFTGIHCE; listed as Homo sapiens)
MIC E. coli BL21 [1, 12]: 12.5 µg/mL | MIC P. aeruginosa [2, 12]: 12.5 µg/mL | MIC P. mirabilis [3, 12]: 12.5 µg/mL | MIC E. cloacae [4, 12]: 25 µg/mL | MIC C. diversus [5, 12]: 12.5 µg/mL | MIC [6]: 50 µg/mL | MIC A. hydrophila [7, 12]: 25 µg/mL | MIC K. pneumonia [8, 12]: 12.5 µg/mL | MIC P. vulgaris [9, 12]: 25 µg/mL | MIC S. marcescens [10, 12]: 12.5 µg/mL | MIC M. catarrhalis [11, 12]: 25 µg/mL

PRT1247 (WGARCEHACQCQHGTCHPRSGACRCEPGWWGAQCA; listed as Homo sapiens)
MIC against E. coli BL21 ([1]; E. coli BL21, 96-well plate, 37° C., 10 h): 12.5 µg/mL | MIC against P. aeruginosa ([2]; Pseudomonas aeruginosa, 96-well plate, 37° C., 10 h): 12.5 µg/mL | MIC against P. mirabilis ([3]; Proteus mirabilis, 96-well plate, 37° C., 10 h): 25 µg/mL | MIC against E. cloacae ([4]; Enterobacter cloacae, 96-well plate, 37° C., 10 h): 12.5 µg/mL | MIC against C. diversus ([5]; Citrobacter diversus, 96-well plate, 37° C., 10 h): 25 µg/mL | MIC [6]: 50 µg/mL | MIC against A. hydrophila ([7]; Aeromonas hydrophila, 96-well plate, 37° C., 10 h): 12.5 µg/mL | MIC against K. pneumonia ([8]; Klebsiella pneumonia, 96-well plate, 37° C., 10 h): 25 µg/mL | MIC against P. vulgaris ([9]; Proteus vulgaris, 96-well plate, 37° C., 10 h): 12.5 µg/mL | MIC against S. marcescens ([10]; Serratia marcescens, 96-well plate, 37° C., 10 h): 25 µg/mL | MIC against M. catarrhalis ([11]; Moraxella catarrhalis, 96-well plate, 37° C., 10 h): 12.5 µg/mL

PRT261 (CAHGHGGCSPHANCTKVAPGQRTCTCQDGYMGDGELC; listed as Homo sapiens)
MIC (μg/mL) E. coli BL21 [1, 13]: 12.5 µg/mL | MIC (μg/mL) P. aeruginosa ([2]; P. aeruginosa, 10 h cultivation at 37° C.): 12.5 µg/mL | MIC (μg/mL) P. mirabilis ([3]; P. mirabilis, 10 h cultivation at 37° C.): 25 µg/mL | MIC (μg/mL) E. cloacae ([4]; E. cloacae, 10 h cultivation at 37° C.): 50 µg/mL | MIC (μg/mL) C. diversus ([5]; C. diversus, 10 h cultivation at 37° C.): 25 µg/mL | MIC [6]: 12.5 µg/mL | MIC (μg/mL) A. hydrophila ([7]; A. hydrophila, 10 h cultivation at 37° C.): 12.5 µg/mL | MIC (μg/mL) K. pneumonia ([8]; K. pneumonia, 10 h cultivation at 37° C.): 12.5 µg/mL | MIC (μg/mL) P. vulgaris ([9]; P. vulgaris, 10 h cultivation at 37° C.): 12.5 µg/mL | MIC (μg/mL) S. marcescens ([10]; S. marcescens, 10 h cultivation at 37° C.): 50 µg/mL | MIC (μg/mL) M. catarrhalis ([11]; M. catarrhalis, 10 h cultivation at 37° C.): 50 µg/mL

PRT1382 (GVRSCPRGCSQRGRCKDGRCVCDPGYTGEDC; listed as Homo sapiens)
MIC against E. coli BL21 [1, 13]: 12.5 µg/mL | MIC against P. aeruginosa [2, 14]: 50 µg/mL | MIC against P. mirabilis [3, 15]: 12.5 µg/mL | MIC against E. cloacae [4, 16]: 50 µg/mL | MIC against C. diversus [5, 17]: 50 µg/mL | MIC [6]: 25 µg/mL | MIC against A. hydrophila [7, 18]: 12.5 µg/mL | MIC against K. pneumonia [8, 19]: 100 µg/mL | MIC against P. vulgaris [9, 20]: 25 µg/mL | MIC against S. marcescens [10, 21]: 12.5 µg/mL | MIC against M. catarrhalis [11, 22]: 12.5 µg/mL

PRT482 (ECIDDETEEICGGHGKCYCGNCYCKAGWHGDKCE; listed as Homo sapiens)
MIC against E. coli BL21 ([1]; 96-well plate, 37° C., 10 h): 12.5 µg/mL | MIC against P. aeruginosa ([2]; 96-well plate, 37° C., 10 h): 50 µg/mL | MIC against P. mirabilis ([3]; 96-well plate, 37° C., 10 h): 25 µg/mL | MIC against E. cloacae ([4]; 96-well plate, 37° C., 10 h): 25 µg/mL | MIC against C. diversus ([5]; 96-well plate, 37° C., 10 h): 25 µg/mL | MIC [6]: 50 µg/mL | MIC against A. hydrophila ([7]; 96-well plate, 37° C., 10 h): 50 µg/mL | MIC against K. pneumonia ([8]; 96-well plate, 37° C., 10 h): 12.5 µg/mL | MIC against P. vulgaris ([9]; 96-well plate, 37° C., 10 h): 50 µg/mL | MIC against S. marcescens ([10]; 96-well plate, 37° C., 10 h): 25 µg/mL | MIC against M. catarrhalis ([11]; 96-well plate, 37° C., 10 h): 12.5 µg/mL

PRT1464 (CNCDKTGTINGSLLCNKSTGQCPCKLGVTGLRCNQCEPHRYNLTIDNFQHCQM; listed as Homo sapiens)
MIC against E. coli BL21 [1, 13]: 25 µg/mL | MIC against P. aeruginosa [2, 14]: 12.5 µg/mL | MIC against P. mirabilis [3, 15]: 12.5 µg/mL | MIC against E. cloacae [4, 16]: 12.5 µg/mL | MIC against C. diversus [5, 17]: 12.5 µg/mL | MIC [6]: 12.5 µg/mL | MIC against A. hydrophila [7, 18]: 12.5 µg/mL | MIC against K. pneumonia [8, 19]: 12.5 µg/mL | MIC against P. vulgaris [9, 20]: 25 µg/mL | MIC against S. marcescens [10, 21]: 50 µg/mL | MIC against M. catarrhalis [11, 22]: 12.5 µg/mL
